Measured values: patent publication US20210205312A1, “TREATMENT OF MEMBRANOUS NEPHROPATHY, IGG4-RELATED DISEASE, AND ANTIPHOSPHOLIPID SYNDROME USING BTK INHIBITOR 2-[(3R)-3-[4-AMINO-3-(2-FLUORO-4-PHENOXY-PHENYL)PYRAZOLO[3,4-d]PYRIMIDIN-1-YL]PIPERIDINE-1-CARBONYL]-4-METHYL-4-[4-(OXETAN-3-YL)PIPERAZIN-1-YL]PENT-2-ENENITRILE” (Principia Biopharma Inc., priority 2020, published 2021)
Read-outs that look alike come from different tables or passages of the source.

Experiments:
[1] = tested on: enriched B-cells from healthy volunteers; experiment: Inhibition of B-cell antibody production (IgG and IgM AlphaLISA); settings: for IC50: Homo sapiens, B-cell, 168 h
Experimental: B-cells were enriched from leukocyte concentrate of TrimaAccel® LRS chamber recovered after a plateletpheresis procedure from healthy volunteers (Stanford Blood Center, Palo Alto, Calif.) using the Straight from LRSC CD19 Microbead Kit (Miltenyi Biotech). […] IC50 was calculated in GraphPad Prism with non-linear regression using “log (inhibitor) vs. response—Variable slope (four parameters)” analysis with no constraints.

[2] = tested on: anti-GBM glomerulonephritis; experiment: Mouse anti-GBM glomerulonephritis model; assay type: in vivo
Experimental: The mouse anti-GBM glomerulonephritis model involves antibody mediated autoimmunity, and the model is histologically and mechanistically similar to glomerulonephritis in humans. The model also includes kidney deposition of immune complexes (IC), targeting glomerular basement membrane. The efficacy of Compound (I) (also referred to as PRN1008) relative to the corticosteroid dexamethasone (Dex) was tested in a mouse anti-GBM glomerulonephritis model according to the design shown in FIG. 1. Briefly, to induce glomerulonephritis, mice were pre-sensitized with sheep IgG/FCA (Study Day −5). Five days later (Study Day 0), the mice received anti-GBM sheep IgG. Treatment with vehicle, Compound (I), or Dex with various dosage regimes (Compound (I): 10 mg/kg, 20 mg/kg, or 40 mg/kg QD or 20 mg/kg BID; Dex: 1 mg/kg QD; Vehicle: QD or BID) began at Study Day −1, one day prior to injection with anti-GBM sheep IgG. Treatment continued until Study Day 10, for […] treatment in total. Urine protein analysis was conducted on Study Days −6, −4, −1, 1, 3, 6, 8, and 10. Following Study Day 10, mice serum BUN levels were analyzed as a measure of kidney function, and kidney histology was performed.

[3] = tested on: CD20+ B-cells in human whole blood; experiment: B-cell activation: anti-IgM-induced CD69 expression on CD20+ B-cells in human whole blood (flow cytometry); assay type: cell-based; settings: read-out: IC50 for inhibition of CD69 B-cell expression
Experimental: Compound (I) can inhibit B-cell activation, BCR dependent B-cell proliferation, and de novo antibody production. To determine the functional activity of Compound (I), the ability of the compound to inhibit B-cell activation as assessed by anti-IgM-induced CD69 expression in CD20+ B-cells in human whole blood was determined (FIG. 7). […]. As an additional measure of the effects of Compound (I) on B-cell function, the ability of Compound (I) to inhibit B-cell receptor (BCR)-induced human B-cell proliferation was determined. […]. A randomized multicenter trial comparing low-dose prednisolone versus observation for prevention of recurrences in adult immune thrombocytopenia. Clin Appl Thromb Hemost 24: 867-873.).

ADCC = experiment: Antibody-dependent cell-mediated cytotoxicity (ADCC) in combination with anti-CD20 antibodies; assay type: cell-based
[4] = 10, 20 or 40 mg/kg QD or 20 mg/kg BID, Study Day -1 to 10

IC50 [3]: 0.126 ± 0.032 µM
SMILES: CC(C)(C=C(C#N)C(=O)N1CCC[C@@H](n2nc(-c3ccc(Oc4ccccc4)cc3F)c3c(N)ncnc32)C1)N1CCN(C2COC2)CC1 [Compound (I), 2-[(3R)-3-[4-amino-3-(2-fluoro-4-phenoxy-phenyl)pyrazolo[3,4-d]pyrimidin-1-yl]piperidine-1-carbonyl]-4-methyl-4-[4-(oxetan-3-yl)piperazin-1-yl]pent-2-enenitrile]
T-dependent and T-independent antibody production (IgG and IgM) ([1]; CpG, TNP-LPS or anti-CD40+IL-21 stimulation, 7 days): inhibited | IC50 ([1]; read-out: IgG antibody production IC50, CpG (TLR-9 agonist) stimulation, T-independent, 7 days): 0.05 ± 0.09 µM | IC50 ([1]; read-out: IgG antibody production IC50, TNP-LPS stimulation, T-independent, 7 days): 0.3 ± 0.6 µM | IC50 ([1]; read-out: IgG antibody production IC50, anti-CD40 + IL-21 stimulation (T-cell dependent), 7 days): 0.02 ± 0.02 µM | IC50 ([1]; read-out: IgM antibody production IC50, CpG (TLR-9 agonist) stimulation, T-independent, 7 days): 0.001 ± 0.001 µM | IC50 ([1]; read-out: IgM antibody production IC50, TNP-LPS stimulation, T-independent, 7 days): 0.2 ± 0.6 µM | IC50 ([1]; read-out: IgM antibody production IC50, anti-CD40 + IL-21 stimulation (T-cell dependent), 7 days): 0.8 ± 1 µM | inhibition of kidney weight gain (surrogate for kidney inflammation) [2, 4]: dose dependent inhibition | inhibition of severe proteinuria [2, 4]: dose dependent inhibition | inhibition of serum blood urea nitrogen (BUN) levels ([2]; 10, 20 or 40 mg/kg QD or 20 mg/kg BID, Study Day -1 to 10, BUN after Day 10): dose dependent inhibition | kidney pathology (histology) ([2]; compared with Dex 1 mg/kg QD): significantly reduced kidney pathology, superior to a steroid comparator (Dex) | proteinuria during the study ([2]; urine protein analysis up to Study Day 10): reduced proteinuria | effect on ADCC (ADCC): did not block
